Measured values from patent US8747810B2, “Compositions and methods for imaging tissues, organs and tumors” (President and Fellows of Harvard College, priority 2009, dated 2014).
Like-named read-outs stand apart in the source and are kept apart here.

Key:
[1] = target: T1, 5HT1A receptor (Rattus norvegicus, UniProt P19327); experiment: 5HT1A receptor competition binding assay, [3H]-8-OH-DPAT, rat hippocampus
T1 construct: hippocampal homogenates that were prepared from Sprague Dawley rat hippocampus; from tissue; host or cells: rat (Sprague-Dawley) hippocampus membranes
T1 sequence (P19327 1-422): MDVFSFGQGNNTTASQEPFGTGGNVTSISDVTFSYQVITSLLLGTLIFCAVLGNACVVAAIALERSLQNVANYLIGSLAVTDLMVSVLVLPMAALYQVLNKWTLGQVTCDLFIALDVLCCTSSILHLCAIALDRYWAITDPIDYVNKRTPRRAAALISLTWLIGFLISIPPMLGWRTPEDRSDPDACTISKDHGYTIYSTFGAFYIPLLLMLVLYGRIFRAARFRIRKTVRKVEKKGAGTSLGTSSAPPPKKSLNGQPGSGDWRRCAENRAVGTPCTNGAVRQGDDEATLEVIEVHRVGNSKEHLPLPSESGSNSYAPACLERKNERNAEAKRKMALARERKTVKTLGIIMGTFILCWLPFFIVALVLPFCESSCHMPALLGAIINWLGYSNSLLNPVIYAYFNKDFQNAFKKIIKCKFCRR
Method: The in vitro 5HT1A binding affinities of rhenium coordinated complexes were determined in a competition assay using rat hippocampus and high-affinity 5HT1A-ligand [^3H]-8-OH-DPAT (135 Ci/mmol, NEN Life Science Inc., Cambridge, Mass.). See, Brain Res. 1995, 673, 217-225.
Male Sprague-Dawley rats (weighing 150-170 g) were sacrificed using anesthesia agent isoflurane. The brains were rapidly removed, and hippocampus, frontal cortex, hypothalamus, and striatum were hand-dissected on ice and stored at −70° C. Tissue was thawed at room temperature and homogenized using a Brinkmann Polytron tissue disrupter in 50 volumes (wt/vol) of ice-cold 50 mM Tris-HCl buffer (pH 7.4). The suspension was centrifuged twice at 27,000 g for 20 min at 4° C. The membrane pellets were resuspended in 50 volumes of (wt/vol) Tris-HCl buffer and incubated at 37° C. for 20 min in a water bath, before a final centrifugation step (27,000 g; 20 min; 4° C.). The final tissue pellets were stored at −70° C. until assayed.
Twelve concentrations of the nonradioactive rhenium complexes ranging from 1×10^−11 to 1×10^−4 and protein samples (0.15 mg of membrane protein) were incubated with 1.5 nM [^3H]-8-OH-DPAT in a total volume of 0.25 mL of Tris-HCl (50 mM, pH 7.4, 10 mM MgSO4). Incubations were carried out for 60 min at 25° C. All assays were terminated by dilution with 5 mL of ice-cold Tris-HCl (10 mM), pH 7.4, and solution were filtered through glass-fiber filters (Whatman GF/F; presoaked in 0.5% polyethyleneimine for 30 min at 25° C.). Filters were then washed three times with 5 mL of ice-cold Tris-HCl (50 mM, pH 7.4), and counted in Hionic-Fluor cocktail (Packard, Groningen, the Netherlands). The corresponding IC50 values were determined with Origin 6.0 software (OriginLab, Northampton, Mass.) and were used for the calculation of the apparent Ki values with the Cheng-Prusoff equation. See, Biochem. Pharmacol. 1973, 22, 3099-3108.
Rhenium complexes were synthesized by the reaction of [ReBr(CO)3(C4H8O)]2 with the final ligands in acetonitrile at room temperature. The in vitro 5-HT1A binding affinities of complexes Re(CO)3-L1-L9 were determined in competitive receptor binding assay using hippocampal homogenates that were prepared from Sprague Dawley rat hippocampus and the high-affinity [^3H]-8-OH-DPAT as the 5HT1A specific ligand.
The in vitro affinity of Re(CO)3-L complexes for the 5-HT1A receptors were assessed by their ability to compete with the high affinity 5HT1A radioligand [^3H]-8-OH-DPAT.

[2] = target: T2, σ1 receptor (Cavia porcellus, UniProt Q60492); experiment: σ1 receptor competition binding assay, [3H]-(+)-pentazocine; design: species or system guinea pig
T2 construct: The membranes were prepared from guinea pig brain (minus cerebellum) as described above; from tissue; host or cells: guinea pig brain (minus cerebellum) membranes
T2 sequence (Q60492 whole entry): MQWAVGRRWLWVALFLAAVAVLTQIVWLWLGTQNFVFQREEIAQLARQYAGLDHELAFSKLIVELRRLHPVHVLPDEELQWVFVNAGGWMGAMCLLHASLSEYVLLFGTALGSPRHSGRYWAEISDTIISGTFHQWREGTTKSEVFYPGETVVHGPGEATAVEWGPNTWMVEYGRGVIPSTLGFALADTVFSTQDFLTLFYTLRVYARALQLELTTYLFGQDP
Method: […] See, Mol. Neuropharmacol. 1993, 3, 117-126.
The membranes were prepared from guinea pig brain (minus cerebellum) as described above and stored at −70° C. Twelve concentrations of the nonradioactive rhenium complexes ranging from 1×10^−11 to 1×10^−3 and protein samples (0.15 mg of membrane protein) were incubated with 5 nM [^3H]-(+)-pentazocine in a total volume of 0.25 mL of Tris-HCl (50 mM, pH 8.0). Incubations were carried out for 120 min at 25° C. All assays were terminated by dilution with 5 mL of ice-cold Tris-HCl (10 mM), pH 8.0, and solution were filtered through glass-fiber filters (Whatman GF/F; presoaked in 0.5% polyethyleneimine for 30 min at 25° C.). Filters were then washed three times with 5 mL of ice-cold Tris-HCl (50 mM, pH 8.0), and counted in Hionic-Fluor cocktail (Packard, Groningen, the Netherlands). The corresponding IC50 values were determined with Origin 6.0 software (OriginLab, Northampton, Mass.) and were used for the calculation of the apparent Ki values with the Cheng-Prusoff equation. See, Biochem. Pharmacol. 1973, 22, 3099-3108.

[3] = target: T3, σ2 receptor (Rattus norvegicus, UniProt Q5U3Y7); experiment: σ2 receptor competition binding assay, [3H]-DTG, rat liver membranes
T3 construct: Rat liver membranes were prepared from male Sprague-Dawley rat livers as previously described; from tissue; host or cells: rat (Sprague-Dawley) liver membranes
T3 sequence (Q5U3Y7 1-176): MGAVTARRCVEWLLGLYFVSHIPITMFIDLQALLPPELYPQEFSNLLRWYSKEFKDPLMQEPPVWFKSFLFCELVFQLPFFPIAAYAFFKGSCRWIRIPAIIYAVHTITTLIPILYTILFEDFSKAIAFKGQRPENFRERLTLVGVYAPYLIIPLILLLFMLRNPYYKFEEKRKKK
Method: Rat liver membranes were prepared from male Sprague-Dawley rat livers as previously described (Eur. J. Pharmacol.-Mol. Pharmacol. Sect. 1994, 268, 9-18). The in vitro σ2 receptor binding affinities of rhenium coordinated complexes were determined in a competition assay using rat livers and [^3H]-DTG (31 Ci/mmol, NEN Life Science Inc., Cambridge, Mass.) as radioligand in the presence of 10 μM 1-pyrrolidinylethyl 3,4-dichlorophenylacetate oxalate (ACT915 oxalate) to mask σ1 receptors (Bioorg. & Med. Chem. Lett. 2000, 10, 17-18). Competition assays were performed with twelve concentrations of the nonradioactive rhenium complexes ranging from […] to 1×10^−3 and protein samples (0.15 mg of membrane protein) in a total volume of 0.25 mL of Tris-HCl (50 mM, pH 8.0) for 120 min at 25° C. All other manipulations and data analysis were performed as described vide supra for the σ1—receptor assays.

[4] = test system: subcutaneous B16F10 melanoma tumor; experiment: Biodistribution of 99mTc complexes in mice bearing subcutaneous B16F10 melanoma tumor; assay type: in vivo; conditions: mouse, in vivo
Excerpt: Biodistribution of 99 mTc complexes in mice bearing subcutaneous B16F10 melanoma tumor was studied for complexes Tc-1-Tc-6.

[5] = quantity not named in table head, methods calculate apparent Ki (Cheng-Prusoff), read-out: 5HT1A
[6] = quantity not named in table head, methods calculate apparent Ki (Cheng-Prusoff), read-out: σ-1
[7] = quantity not named in table head, methods calculate apparent Ki (Cheng-Prusoff), read-out: σ-2

Ki [1, 5] | Ki [2, 6] | Ki [3, 7] | SMILES | further results
0.42 ± 0.08 nM | – | – | CCCN(CCCCCCN1CC[S][Re]2(=[O])[S]CC[N]2C(=O)C1)C1CCc2cccc(O)c2C1 (centres unmarked) [Re-45-HO] | –
18 ± 8 nM | – | – | COc1ccccc1C1CCN(CCCCCC[N+]23CC[N+](C)(C)[Re-2]2(=[C]=O)(=[C]=O)(=[C]=O)[O]c2ccccc2C3)CC1 (centres unmarked) [Re-L17b] | –
– | 29.7 ± 4.31 nM | 223 ± 6.54 nM | O=C1C[S][Re-]23(=[O])[S]CC[N+]2(CCCCCCN2CCC(c4ccccc4)CC2)CC[N]13 (centres unmarked) [Re-32] | –
– | – | – | O=C1C[S][Re-]23(=[O])[S]CC[N+]2(CCCCCCCN2CCC(c4ccccc4)CC2)CC[N]13 (centres unmarked) [Re-33] | Ki [2]: 22.9 ± 1.78 nM; Ki [3]: 188 ± 18.8 nM
439 ± 121 nM | 9.12 ± 0.14 nM | 6420 ± 387 nM | C[N+]1(C)CC[N+]2(CCCCCCN3CCC(c4ccccc4)CC3)Cc3ccccc3[O][Re-2]12(=[C]=O)(=[C]=O)=[C]=O (centres unmarked) [Re-L16b] | –
– | 1480 ± 227 nM | 11.5 ± 0.2 nM | COc1cc2c(cc1OC)CN(CCCCCCN1CC[S][Re]3(=[O])[S]CC[N]3C(=O)C1)C2 (centres unmarked) [Re-43] | –
– | – | – | CCN(CC)CC[N+]12CC[N+](CC)(CC)[99Tc-5]1([C]#[O+])([C]#[O+])([C]#[O+])[O]c1ccccc1C2 (centres unmarked) [99 mTc-6] | tumor uptake and retention (in words) [4]: poor tumor uptake and retention
– | 64 ± 5.9 nM | 61 ± 3.91 nM | O=C1CN(CCCCCCN2Cc3ccccc3C2)CC[S][Re]2(=[O])[S]CC[N]12 (centres unmarked) [Re-44] | –
– | – | – | COc1ccccc1N1CCN(CCC[N+]23Cc4ccccc4[O][Re-5]2([C]#[O+])([C]#[O+])([C]#[O+])[n+]2ccccc2C3)CC1 (centres unmarked) [Re-L1] | Ki ([1]; Example 62, Re(CO)3-L complexes, [3H]-8-OH-DPAT, rat hippocampal homogenates, read-out: Ki, 5-HT1A receptor affinity): 83.2 ± 2.2 nM
15.4 ± 4.06 nM | 64.3 ± 1.27 nM | 244 ± 8.56 nM | CCCN(CCCCCCN1CC[S][Re]2(=[O])[S]CC[N]2C(=O)C1)C1CCc2c(cccc2OC)C1 (centres unmarked) [Re-47] | –
– | 30 ± 6.3 nM | 43.4 ± 0.99 nM | O=C1CN(CCCCCCN2CCC(c3ccccc3)CC2)CC[S][Re]2(=[O])[S]CC[N]12 (centres unmarked) [Re-40] | –
